# Measurements from patent US20250332149A1, “PIPERIDINE COMPOUNDS AND PHARMACEUTICAL COMPOSITIONS” (Lumos Pharma, Inc., priority 2024, published 2025).
# Tests used:
# Assay type in all cases: in vivo, human
# [1] = system: serum growth hormone (GH); assay: Phase 1 study Part 2: PD, serum GH concentration fasted vs fed; conditions: for serum GH concentration, mean (SD): pre-dose
# Excerpt: • Part 1: To evaluate PD (GH response) of the new LUM-201 formulation as capsule (test). • Part 2: To measure PD (GH response) to LUM-201 administered as capsule (test) in fasted versus fed state. PD Results (pt 2): Following the administration of LUM-201, the serum GH concentration values increased post dose. At pre-dose, mean (SD) serum GH concentration values were 0.2121 (0.2192) ng/mL in Treatment A and 0.1088 (0.09518) ng/mL in Treatment B. The serum GH concentration value peaked at 22.18 (22.24) ng/mL in Treatment A at 1 h post-dose and 14.10 (13.48) ng/mL in Treatment B at 1.5 h post-dose. The serum GH concentration values in Treatment A were consistently higher compared to Treatment B over time and approached the peak concentration sooner at 1 h post-dose.
# [2] = system: serum IGF-1; assay: Phase 1 study Part 2: PD, serum IGF-1 concentration fasted vs fed
# Method: The serum IGF-1 concentration values remained stable over the sampling time interval post dose. At pre-dose, mean (SD) serum […] concentration values were 209.2 (54.28) ng/mL for Treatment A and 188.8 (26.11) ng/mL for Treatment B. At 24 h post-dose, the serum GH concentration value peaked at 244.7 (37.66) ng/mL in Treatment A and 220.8 (43.50) ng/mL in Treatment B.
# [3] = system: serum IGF-1; assay: Phase 1 study Part 1: PD, serum IGF-1 concentration
# Method: The serum IGF-1 concentration values remained stable over the sampling time interval post dose. At pre-dose, mean (SD) serum IGF-1 concentration values were 200.9 (50.41) ng/mL for Treatment A, 192.6 (50.55) ng/mL for Treatment B, 192.5 (47.67) ng/mL for Treatment C, and 195.8 (47.16) ng/mL for Treatment D. At 24 h post-dose, the serum concentration values rose to 224.7 (48.70) ng/mL in Treatment A, 224.2 (50.24) ng/mL in Treatment B, 230.4 (60.81) ng/mL in Treatment C, and 223.7 (56.75) ng/mL in Treatment D.
# [4] = system: serum growth hormone (GH); assay: Phase 1 study Part 1: PD, serum GH concentration; conditions: for serum GH concentration, peak, mean (SD): 1 h post-dose; for serum GH concentration, mean (SD): pre-dose
# Excerpt: • Part 1: To evaluate PD (GH response) of the new LUM-201 formulation as capsule (test). • Part 2: To measure PD (GH response) to LUM-201 administered as capsule (test) in fasted versus fed state. PD Results (pt 1): Individual serum growth hormone (GH) concentration time data were obtained for each subject and treatment cohort. […] Following the administration of LUM-201, the serum GH concentration values increased post dose as expected. At pre-dose, mean (SD) serum GH concentration values were 0.2970 (0.7404) ng/mL for Treatment A, 0.2052 (0.3174) ng/mL for Treatment B, 0.5303 (1.354) ng/mL for Treatment C, and 0.1454 (0.1981) ng/mL for Treatment D. The serum GH concentration value peaked at 1 h post-dose for all treatment groups. 17.10 (15.07) ng/mL in Treatment A, 16.55 (16.36) ng/mL in Treatment B, 17.30 (17.05) ng/mL in Treatment C, and 18.01 (14.32) ng/mL in Treatment D. The trend of serum GH concentration changes in all 4 treatment groups was similar, except for the serum GH concentration in Treatment A that approached the peak concentration sooner, relative to the other treatments, at 0.5 h post-dose.
# [5] = Part 2, Treatment A (fasted state) and Treatment B (fed state)
# [6] = Part 1, Treatment A: five 18 mg tablets (90 mg), fasted
# [7] = Part 1, Treatment B: 85.3 mg whole capsule, fasted
# [8] = Part 1, Treatment C: 85.3 mg capsule contents (dry), fasted
# [9] = Part 1, Treatment D: 85.3 mg capsule contents in banana puree
compound,measurement,setting,value
"CC(C)(N)C(=O)N[C@H](COCc1ccccc1)C(=O)N1CCC2(CC1)CN(S(C)(=O)=O)c1ccccc12 [LUM-201, N-[1(R)-[(1,2-dihydro-1-methanesulfonylspiro[3H-indole-3,4′-piperdin]-yl)carbonyl]-2-(phenylmethyloxy)ethyl]-2-amino-2-methylpropanamide methanesulfonate]","serum GH concentration, peak, mean (SD)","[1]; 1 h post-dose, Part 2, Treatment A: 85.3 mg capsule, fasted",22.18 (22.24) ng/mL
same,"serum GH concentration, peak, mean (SD)","[1]; 1.5 h post-dose, Part 2, Treatment B: 85.3 mg capsule after high-fat meal",14.10 (13.48) ng/mL
same,"serum GH concentrations 1.5 hours after administration, fasted vs fed",[1]; [5],comparable
same,"serum GH concentration, mean (SD)","[1]; Part 2, Treatment A: 85.3 mg capsule, fasted",0.2121 (0.2192) ng/mL
same,"serum GH concentration, mean (SD)","[1]; Part 2, Treatment B: 85.3 mg capsule after high-fat meal",0.1088 (0.09518) ng/mL
same,serum IGF-1 concentration,"[2]; 24 h post-dose, Part 2, Treatment A: 85.3 mg capsule, fasted",244.7 (37.66) ng/mL
same,serum IGF-1 concentration,"[2]; 24 h post-dose, Part 2, Treatment B: 85.3 mg capsule after high-fat meal",220.8 (43.50) ng/mL
same,"serum IGF-1 concentration values and trend, fasted vs fed",[2]; [5],comparable
same,serum IGF-1 concentration,"[2]; pre-dose, Part 2, Treatment A: 85.3 mg capsule, fasted",209.2 (54.28) ng/mL
same,serum IGF-1 concentration,"[2]; pre-dose, Part 2, Treatment B: 85.3 mg capsule after high-fat meal",188.8 (26.11) ng/mL
same,"serum IGF-1 concentration, mean (SD)","[3]; 24 h post-dose, Part 1, Treatment A: five 18 mg tablets (90 mg), fasted",224.7 (48.70) ng/mL
same,"serum IGF-1 concentration, mean (SD)","[3]; 24 h post-dose, Part 1, Treatment B: 85.3 mg whole capsule, fasted",224.2 (50.24) ng/mL
same,"serum IGF-1 concentration, mean (SD)","[3]; 24 h post-dose, Part 1, Treatment C: 85.3 mg capsule contents (dry), fasted",230.4 (60.81) ng/mL
same,"serum IGF-1 concentration, mean (SD)","[3]; 24 h post-dose, Part 1, Treatment D: 85.3 mg capsule contents in banana puree",223.7 (56.75) ng/mL
same,"serum IGF-1 concentration, mean (SD)","[3]; pre-dose, Part 1, Treatment A: five 18 mg tablets (90 mg), fasted",200.9 (50.41) ng/mL
same,"serum IGF-1 concentration, mean (SD)","[3]; pre-dose, Part 1, Treatment B: 85.3 mg whole capsule, fasted",192.6 (50.55) ng/mL
same,"serum IGF-1 concentration, mean (SD)","[3]; pre-dose, Part 1, Treatment C: 85.3 mg capsule contents (dry), fasted",192.5 (47.67) ng/mL
same,"serum IGF-1 concentration, mean (SD)","[3]; pre-dose, Part 1, Treatment D: 85.3 mg capsule contents in banana puree",195.8 (47.16) ng/mL
same,"serum GH concentration, peak, mean (SD)",[4]; [6],17.10 (15.07) ng/mL
same,"serum GH concentration, peak, mean (SD)",[4]; [7],16.55 (16.36) ng/mL
same,"serum GH concentration, peak, mean (SD)",[4]; [8],17.30 (17.05) ng/mL
same,"serum GH concentration, peak, mean (SD)",[4]; [9],18.01 (14.32) ng/mL
same,"PD parameters, capsule versus tablets","[4]; Part 1, serum GH and serum IGF-1, 4 treatment groups",no observed differences
same,"serum GH concentration, mean (SD)",[4]; [6],0.2970 (0.7404) ng/mL
same,"serum GH concentration, mean (SD)",[4]; [7],0.2052 (0.3174) ng/mL
same,"serum GH concentration, mean (SD)",[4]; [8],0.5303 (1.354) ng/mL
same,"serum GH concentration, mean (SD)",[4]; [9],0.1454 (0.1981) ng/mL
